Assay results taken from PubChem BioAssay AID256 (DTP/NCI, 2004).
Several values for one entry are separate records, joined by “and”; a condition that tells them apart may be missing. Equal values may be shown once. Toxic doses and inconclusive results are not listed. The calls were made as follows: active = survival T/C of 150% or more; inactive = T/C below 125% in these data.

System: CD2F1 mice, L1210 leukemia ip, survival T/C
Test: NCI In Vivo Anticancer Drug Screen. Data for tumor model L1210 Leukemia (intraperitoneal) in CD2F1 (CDF1) mice
Conditions: higher = longer survival
In short: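 Each value reflects a quotient of treated over vehicle control outcomes in mice with a transplanted tumor.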

[1] = endpoint: mean survival time, dose: 6.25 mg/kg/injection, schedule: Q01DX009 (ip), vehicle: saline
[2] = endpoint: mean survival time, dose: 12.5 mg/kg/injection, schedule: Q01DX009 (ip), vehicle: saline
[3] = endpoint: mean survival time, dose: 12.5 mg/kg/injection, schedule: Q04DX003 (ip), vehicle: saline
[4] = endpoint: mean survival time, dose: 25.0 mg/kg/injection, schedule: Q01DX009 (ip), vehicle: saline
[5] = endpoint: mean survival time, dose: 25.0 mg/kg/injection, schedule: Q04DX003 (ip), vehicle: saline
[6] = endpoint: mean survival time, dose: 100.0 mg/kg/injection, schedule: Q04DX003 (ip), vehicle: saline with Tween-80
[7] = endpoint: mean survival time, dose: 200.0 mg/kg/injection, schedule: Q04DX003 (ip), vehicle: saline with Tween-80
[8] = endpoint: mean survival time, dose: 400.0 mg/kg/injection, schedule: Q04DX003 (ip), vehicle: saline with Tween-80
[9] = endpoint: mean survival time, dose: 50.0 mg/kg/injection, schedule: Q04DX002 (ip), vehicle: saline with Tween-80
[10] = endpoint: mean survival time, dose: 100.0 mg/kg/injection, schedule: Q04DX002 (ip), vehicle: saline with Tween-80
[11] = endpoint: mean survival time, dose: 200.0 mg/kg/injection, schedule: Q04DX002 (ip), vehicle: saline with Tween-80
[12] = endpoint: mean survival time, dose: 400.0 mg/kg/injection, schedule: Q04DX002 (ip), vehicle: saline with Tween-80
[13] = endpoint: mean survival time, dose: 100.0 mg/kg/injection, schedule: Q01DX009 (ip), vehicle: saline with Tween-80
[14] = endpoint: mean survival time, dose: 200.0 mg/kg/injection, schedule: Q01DX009 (ip), vehicle: saline with Tween-80
[15] = endpoint: mean survival time, dose: 400.0 mg/kg/injection, schedule: Q01DX009 (ip), vehicle: saline with Tween-80
[16] = endpoint: mean survival time, dose: 100.0 mg/kg/injection, schedule: Q04DX003 (ip), vehicle: Klucel (hydroxypropylcellulose) (HPC)
[17] = endpoint: mean survival time, dose: 200.0 mg/kg/injection, schedule: Q04DX003 (ip), vehicle: Klucel (hydroxypropylcellulose) (HPC)
[18] = endpoint: mean survival time, dose: 400.0 mg/kg/injection, schedule: Q04DX003 (ip), vehicle: Klucel (hydroxypropylcellulose) (HPC)

Measured: T/C

C=C(Br)CNC(=O)C(F)(F)F
inactive: [1] 100 % of control | endpoint: mean survival time, dose: 6.25 mg/kg/injection, schedule: Q04DX003 (ip), vehicle: saline 96 % of control | [2] 102 % of control | [3] 98 % of control | [4] 108 % of control | [5] 93 % of control

O=Cc1c2ccc(Cl)cc2nc2ccc(Cl)cc12
inactive: [6] 101 % of control | [7] 98 % of control | [8] 94 % of control

O=C1CSCC(=O)N1
inactive: endpoint: mean survival time, dose: 100.0 mg/kg/injection, schedule: Q04DX003 (ip), vehicle: other 111 % of control | endpoint: mean survival time, dose: 200.0 mg/kg/injection, schedule: Q04DX003 (ip), vehicle: other 111 % of control | endpoint: mean survival time, dose: 400.0 mg/kg/injection, schedule: Q04DX003 (ip), vehicle: other 98 % of control

CCOP1(=S)Nc2cc(C)c(C)cc2N1
inactive: endpoint: mean survival time, dose: 25.0 mg/kg/injection, schedule: Q04DX002 (ip), vehicle: saline with Tween-80 98 % of control | [9] 87 % of control | [10] 87 % of control | [11] 87 % of control

CC(C)(C)C1CC[N-]CC1.CC(C)(C)C1CC[N-]CC1.O=[N+]([O-])O.O=[N+]([O-])O.[Pt+2]
inactive: [9] 98 % of control | [10] 98 % of control | [11] 95 % of control

CCOC(=O)CCC(N)C(=O)OCC (stereo not drawn)
inactive: endpoint: mean survival time, dose: 100.0 mg/kg/injection, schedule: Q01DX001 (ip), vehicle: saline 95 % of control | endpoint: mean survival time, dose: 200.0 mg/kg/injection, schedule: Q01DX001 (ip), vehicle: saline 88 % of control | endpoint: mean survival time, dose: 400.0 mg/kg/injection, schedule: Q01DX001 (ip), vehicle: saline 93 % of control

CCC(CCc1ccc(OC)c(OC)c1)C(=O)O (stereo not drawn)
inactive: [10] 109 % of control | [11] 102 % of control | [12] 98 % of control

CN1C(=O)C(C(O)(c2ccccc2)c2ccccc2)C1c1ccccc1 (stereo not drawn)
inactive: [9] 96 % of control | [10] 96 % of control | [11] 96 % of control

NS(=O)(=O)O
inactive: [3] 98 % of control | [5] 110 % of control | endpoint: mean survival time, dose: 50.0 mg/kg/injection, schedule: Q04DX003 (ip), vehicle: saline 102 % of control

C=C1CC2(OC1=O)C(=O)N(C)c1ccc(I)cc12 (stereo not drawn)
inactive: [1] 100 % of control and 104 % of control | [2] 100 % of control and 112 % of control | [4] 117 % of control and 102 % of control | endpoint: mean survival time, dose: 50.0 mg/kg/injection, schedule: Q01DX009 (ip), vehicle: saline 105 % of control

CN(C)S(=O)(=O)c1ccccc1C(O)(c1ccccc1)c1ccccc1
inactive: [13] 103 % of control | [6] 104 % of control | [14] 94 % of control | [7] 101 % of control | [15] 101 % of control | [8] 98 % of control

CC(C)/C(=N\Nc1ccc([N+](=O)[O-])cc1[N+](=O)[O-])c1ccccc1
inactive: [13] 97 % of control | [14] 101 % of control | [15] 103 % of control

Nc1nc2c(ncn2-c2cccc(C(F)(F)F)c2)c(=O)[nH]1
inactive: [6] 94 % of control | [7] 89 % of control | [8] 92 % of control

O=NNc1ccc(Cl)cn1
inactive: endpoint: median survival time, dose: 1.5 mg/kg/injection, schedule: Q01DX009 (ip), vehicle: water 110 % of control | endpoint: median survival time, dose: 1.56 mg/kg/injection, schedule: Q01DX009 (ip), vehicle: water 104 % of control | endpoint: median survival time, dose: 3.0 mg/kg/injection, schedule: Q01DX009 (ip), vehicle: water 114 % of control | endpoint: median survival time, dose: 3.12 mg/kg/injection, schedule: Q01DX009 (ip), vehicle: water 117 % of control | endpoint: median survival time, dose: 6.0 mg/kg/injection, schedule: Q01DX009 (ip), vehicle: water 119 % of control | endpoint: median survival time, dose: 12.5 mg/kg/injection, schedule: Q01DX009 (ip), vehicle: water 104 % of control | endpoint: median survival time, dose: 24.0 mg/kg/injection, schedule: Q01DX009 (ip), vehicle: water 107 % of control

COC1OC2COC(c3ccccc3)OC2C(O)C1O (stereo not drawn)
inactive: [16] 105 % of control | [17] 95 % of control | [18] 95 % of control

O=C1c2ccccc2C(=O)N1OC1CCCCO1 (stereo not drawn)
inactive: [16] 92 % of control | [17] 102 % of control | [18] 94 % of control

O=[N+]([O-])c1ccc(N/N=C(\CI)c2ccccc2)c([N+](=O)[O-])c1
inactive: endpoint: mean survival time, dose: 100.0 mg/kg/injection, schedule: Q04DX003 (ip), vehicle: saline sonified 97 % of control | endpoint: mean survival time, dose: 200.0 mg/kg/injection, schedule: Q04DX003 (ip), vehicle: saline sonified 109 % of control | endpoint: mean survival time, dose: 400.0 mg/kg/injection, schedule: Q04DX003 (ip), vehicle: saline sonified 108 % of control

Nc1nc2c(nc(NCc3ccccc3)n2C2OC(CO)C(O)C2O)c(=O)[nH]1 (stereo not drawn)
inactive: endpoint: mean survival time, dose: 6.25 mg/kg/injection, schedule: Q01DX005 (ip), vehicle: distilled water + Tween-80 97 % of control | endpoint: mean survival time, dose: 12.5 mg/kg/injection, schedule: Q01DX005 (ip), vehicle: distilled water + Tween-80 95 % of control | endpoint: mean survival time, dose: 25.0 mg/kg/injection, schedule: Q01DX005 (ip), vehicle: distilled water + Tween-80 95 % of control | endpoint: mean survival time, dose: 50.0 mg/kg/injection, schedule: Q01DX005 (ip), vehicle: distilled water + Tween-80 90 % of control | endpoint: mean survival time, dose: 100.0 mg/kg/injection, schedule: Q01DX005 (ip), vehicle: distilled water + Tween-80 90 % of control

O=S(CS(=O)c1ccccc1)c1ccccc1 (stereo not drawn)
inactive: [6] 100 % of control | [7] 109 % of control | [8] 105 % of control

CC(=O)Nc1ncc(CN2CCCCC2)s1
inactive: endpoint: mean survival time, dose: 100.0 mg/kg/injection, schedule: Q04DX002 (ip), vehicle: Klucel (hydroxypropylcellulose) (HPC) 100 % of control | endpoint: mean survival time, dose: 200.0 mg/kg/injection, schedule: Q04DX002 (ip), vehicle: Klucel (hydroxypropylcellulose) (HPC) 103 % of control

[B-][N+]12CN3CN(CN(C3)C1)C2
inactive: endpoint: mean survival time, dose: 75.0 mg/kg/injection, schedule: Q01DX001 (ip), vehicle: saline 101 % of control

CC(C)=CC(O)CC(O)(C(F)(F)F)C(F)(F)F (stereo not drawn)
inactive: endpoint: mean survival time, dose: 100.0 mg/kg/injection, schedule: Q01DX001 (ip), vehicle: Klucel (hydroxypropylcellulose) (HPC) 94 % of control | [10] 94 % of control | endpoint: mean survival time, dose: 200.0 mg/kg/injection, schedule: Q01DX001 (ip), vehicle: Klucel (hydroxypropylcellulose) (HPC) 97 % of control | [11] 94 % of control | endpoint: mean survival time, dose: 400.0 mg/kg/injection, schedule: Q01DX001 (ip), vehicle: Klucel (hydroxypropylcellulose) (HPC) 100 % of control | [12] 90 % of control

[O-][n+]1c2ccccc2c(Oc2ccccc2)c2ccc3ccccc3c21
inactive: endpoint: mean survival time, dose: 25.0 mg/kg/injection, schedule: Q04DX003 (ip), vehicle: saline with Tween-80 98 % of control | endpoint: mean survival time, dose: 50.0 mg/kg/injection, schedule: Q04DX003 (ip), vehicle: saline with Tween-80 95 % of control | [6] 86 % of control
